Assay results published in patent US20240331158A1, “CELL PAINTING AND ANALYSIS IN 3D CELLULAR MODELS” (priority 2023, published 2024).
Structures can show the parent of a compound that is named as a salt. Where two headings read alike, the source gives them in different places. *1 amine or outer side, *2 acyl side, *3 side chain or, on linkers, in order; H or OH if unused. Where a SMILES comes first, the peptide text is derived from it. Bridges are numbered along the chain shown (N, C = ends). Roman numbers before positions name the chains, in order. [ ]: non-standard residue; d: D form. Actinocin(9to1) = Cc1c2oc3c(C)ccc(C(=O)[*:1])c3nc-2c(C(=O)[*:2])c(N)c1=O; NMeV = CN[C@H](C(=O)O)C(C)C; Sar = CNCC(=O)O

What was measured:
TU-BcX-4IC tumoroids [1] = assay: Cell Painting assay adapted for 3D tumoroids, phenotypic distance score and cluster analysis; settings: 10 μM, phenotypic distance relative to DMSO controls
Description: For phenotypic profiling, the tumoroids were treated with a single 10 μM concentration of compound, using the methods described above. Notable changes in the staining protocol included increased times for dye incubation, fixation, and permeabilization. […] Images were acquired with Z-stacks using 20× magnification, and the analysis was carried out on projection (maximum) images.
Unlike the previous analysis that included cell count or live-dead evaluation, multiple read-outs may be collected from the whole spheroid to form their phenotypic profile. […] Instead, the spheroid images may also acquired in transmitted light (bright field), and these images may be used to identify the spheroid structures using a deep learning-based image segmentation approach which may improve the analysis. Features extracted from each spheroid may include object morphologies, intensities, and texture measurements for, e.g., the six cell stains and bright field images.
To determine hits from the assay, a phenotypic distance score may be calculated based on the PCA (principal component analysis) components.
This score is a measure of the phenotypic effect of the compounds on the tumoroids relative to the controls. All hits may then be clustered based on their phenotypic profiles using the normalized principal component scores.
To image the organoids labeled with the cell painting dyes, the ImageXpress Confocal HT.ai system, equipped with a laser light source, was used for image acquisition. The confocal mode (pinhole size 60 μm) was used to image organoids with a 20× Plan Apo Lambda, NA 0.75 objective, with z-stacking enabled (5p m step size). The maximum projection image was selected in the acquisition setup.
Images were analyzed using MetaXpress Software (Molecular Devices). […] For the Cell Painting analysis, image analysis was done in the IN Carta image analysis software. To segment the organoids, a deep learning-based model was created based on the TL channel to segment individual organoids. Following segmentation, measurements that include intensity, shape, area, and texture were extracted from all 6 fluorescent channels. In total, 210 analytical features were obtained from each organoid.
The plate was first incubated with MitoTracker DeepRed (500 nM) for 2 hours. The samples were fixed with 4% paraformaldehyde (PFA) in HBSS for 60 minutes. All wash steps were carried out by exchanging half the volume in each well with HBSS to minimize displacement of the organoids from the center of the well.
Measurements from IN Carta were exported as a CSV file and uploaded into StratoMineR (Core Life Analytica), a web-based data analytics platform for hit picking and phenotypic clustering.

TU-BcX-4IC tumoroids [2] = assay: Library screening of NCI approved anti-cancer drugs: tumoroid integrity/disintegration by nuclear count in projection images (viability/spheroid disintegration assay); settings: for Viability HIT?: also hit in viability/spheroid disintegration assay, 10 μM; for minimal effective concentration: Homo sapiens, TU-BcX-4IC, 120 h
Description: In addition, positive and negative controls were included in the test plates.
During incubation with compounds, tumoroids were monitored daily using TL imaging. Image analysis allowed characterization of tumoroid size, diameter, compactness, and integrity, as well as optical density (FIG. 2B, FIG. 7). Images of tumoroids were taken prior to compound treatment, and during day 3 and day 5 of compound treatment. For the end point assay, tumoroids were stained with viability and nuclear dyes on day 5 of compound treatment. Cells were stained with a combination of Hoechst, calcein AM, and Ethidium Homodimer III (EthD-III) and analyzed using high content imaging for complex phenotypic analysis; a subset of plates was set aside for additional assays including Cell Painting.
Images of organoids were taken with a 10× objective using Z-stack with a step size of 8 mm. Nuclei, live cells, and dead cells of stained cells were detected using DAPI, FITC, and TexasRed channels respectively. Maximum projection images were created from Z-stacks and analyzed as described in Methods. Multiple read-outs were generated characterizing spheroid area, diameter, intensities, and cell viability. In addition, cells inside each spheroid were counted using a nuclear stain. […] Suspended cells were plated into U-shape 384 well plates using a Biomek i7 automated liquid handler, incubated for 48 hours, and then treated with compounds, stained, and imaged. The protocols for compound additions, media, and staining included gentle media dispensing processes. Consecutively, tumoroids were cultured and monitored by automated imaging. Additionally, use of a collaborative robot enabled moving plates from the incubator to the imaging system, where transmitted light imaging or fluorescent imaging protocols were initiated.
For screening the compound library, maximum projection images may be employed. Spheroid disintegration is visible as an increase of spheroid size, in contrast to nicely shaped, round images of intact spheroids. Tumoroid disintegration can be described by several measurements: for example, increase in organoid area/diameter. Most accurate measurements may be done by counting cells or nuclei inside organoids using maximum projection images. […] Disintegrated tumoroids are made up of cells which are not held together in a tight aggregate but instead are loosely piled up in the well bottom resulting in 1) an increased projected area and 2) an increase in nuclear count in the projection images.
Simple nuclei count analysis in projection images was used as a reliable surrogate marker for organoid integrity/dis-integration.

TU-BcX-4IC 2D culture [3] = assay: CellTiter-Glo 3D ATP assay, 2D culture; settings: for EC50: Homo sapiens, TU-BcX-4IC, 120 h, read-out: EC50, ATP 2D
Description: (§1) Cell metabolism may be measured by ATP level as another readout for effects of anti-cancer drugs that is related to cytotoxicity. […] Compounds may be tested using 7 point 5× dilutions starting from 100 uM. In the present examples, compound effects on 2D culture and 3D cultures were compared, using imaging and CellTiter-Glo 3D methods. Cultures were set up in parallel, using same cell number (2000). Cultures were allowed to grow for 48 hours, then treated with compounds for 5 days.

TU-BcX-4IC 3D cultures [4] = assay: Imaging read-out, 3D culture; settings: Homo sapiens, 120 h, read-out: EC50, Imaging 3D
Description: (§2) Cell metabolism may be measured by ATP level as another readout for effects of anti-cancer drugs that is related to cytotoxicity. In the present examples, a subset of 12 compounds were used for evaluation of compound effects, using the CellTiter-Glo 3D assay (Promega), which detects ATP levels. Compounds may be tested using 7 point 5× dilutions starting from 100 uM. In the present examples, compound effects on 2D culture and 3D cultures were compared, using imaging and CellTiter-Glo 3D methods. Cultures were set up in parallel, using same cell number (2000). Cultures were allowed to grow for 48 hours, then treated with compounds for 5 days.
(§3) Images were analyzed using MetaXpress Software (Molecular Devices). Count Nuclei or Cell Scoring application modules were used for nuclear count live/dead assessment, or evaluation of cell number positive for specific markers. Output measurements included spheroid width, spheroid area, average intensity for calcein AM or EthD-III, counts of all nuclei, and evaluation of average nuclear size and average intensities. In addition, calcein AM-positive cells were counted, and their area and intensity values were recorded. In addition to cell count, areas and intensities could be determined for live (EthD-III negative) and dead (EthD-III positive) cells.

TU-BcX-4IC 2D culture [5] = assay: Imaging read-out, 2D culture; settings: Homo sapiens, 120 h, read-out: EC50, Imaging 2D
Description: as §2, §3

TU-BcX-4IC 3D cultures [6] = assay: CellTiter-Glo 3D ATP assay, 3D culture; settings: for EC50: Homo sapiens, TU-BcX-4IC, 120 h, read-out: EC50, ATP 3D
Description: as §1

TU-BcX-4IC tumoroids [7] = assay: Secondary follow-up 3D assay, 7-point concentration curves, tumoroid disintegration measurement; type: cell-based, human; settings: 3D assay, 7-point concentration curves, 5 days, nuclear count in projection images
Description: 10 compounds, including panobinostat, carfilzomib, and bortezomib were tested across 7 concentrations in the 1-10000 nM range. Spheroids were treated for 5 days with these compounds, then stained as described above (FIG. 4). […] EC50 values (Table 2) were determined using tumoroid disintegration measurement (nuclear count in projection images).
Automated staining of spheroids was performed for one hour. After staining, dye solution was replaced with 1×PBS.

[8] = read-out: Effective concentration, 3D tumoroids, 5 days treatment, tumoroid integrity by nuclear count, tested at 10 nM to 100 uM
[9] = Homo sapiens, TU-BcX-4IC, 120 h, read-out: EC50
[10] = read-out: Effective concentration

Row | Molecule | Distance Score (TU-BcX-4IC tumoroids [1]) | Viability HIT? (TU-BcX-4IC tumoroids [2]) | minimal effective concentration (TU-BcX-4IC tumoroids [2]; [8]) [µM] | other results
1 | CCN1CCN(Cc2ccc(Nc3ncc(F)c(-c4cc(F)c5nc(C)n(C(C)C)c5c4)n3)nc2)CC1 [Abemaciclib] | 5.819 | – | – | –
2 | CN(C)C/C=C/C(=O)Nc1cc2c(Nc3ccc(F)c(Cl)c3)ncnc2cc1O[C@H]1CCOC1 [Afatinib] | 5.047 | – | – | –
3 | Cc1nc(NC(=O)N2CCC[C@H]2C(N)=O)sc1-c1ccnc(C(C)(C)C(F)(F)F)c1 [Alpelisib] | 5.834 | yes | – | –
4 | Cn1cc(-c2cc3c(N4CCN(c5ncc([C@@](C)(N)c6ccc(F)cc6)cn5)CC4)ncnn3c2)cn1 [Avapritinib] | 5.386 | no | – | –
5 | O=C(/C=C/c1cccc(S(=O)(=O)Nc2ccccc2)c1)NO [Belinostat] | 5.348 | yes | 0.1 | –
6 | COc1cc(Nc2c(C#N)cnc3cc(OCCCN4CCN(C)CC4)c(OC)cc23)c(Cl)cc1Cl [Bosutinib] | – | – | 0.1 | –
7 | COc1cc(N2CCC(N3CCN(C)CC3)CC2)ccc1Nc1ncc(Cl)c(Nc2ccccc2P(C)(C)=O)n1 [Brigatinib] | 5.771 | – | 1 | –
8 | CC(C)C[C@H](NC(=O)[C@H](CCc1ccccc1)NC(=O)CN1CCOCC1)C(=O)N[C@@H](Cc1ccccc1)C(=O)N[C@@H](CC(C)C)C(=O)[C@@]1(C)CO1 [Carfilzomib] | 5.007 | no | – | EC50 (TU-BcX-4IC 2D culture [3]): 1040 nM; EC50 (TU-BcX-4IC 3D cultures [4]): 73 nM; EC50 (TU-BcX-4IC 2D culture [5]): 1050 nM; EC50 (TU-BcX-4IC 3D cultures [6]): 5820 nM
9 | Cc1ccc(-c2cc(C(F)(F)F)nn2-c2ccc(S(N)(=O)=O)cc2)cc1 [Celecoxib] | – | – | – | EC50 (TU-BcX-4IC tumoroids [7]): no effect
10 | C[C@@H](Oc1cc(-c2cnn(C3CCNCC3)c2)cnc1N)c1c(Cl)ccc(F)c1Cl [Crizotinib] | – | – | – | EC50 (TU-BcX-4IC tumoroids [7]; [9]): > 1000 nM
11 | Cc1c2oc3c(C)ccc(C(=O)N[C@@H]4C(=O)N[C@H](C(C)C)C(=O)N5CCC[C@H]5C(=O)N(C)CC(=O)N(C)[C@@H](C(C)C)C(=O)O[C@@H]4C)c3nc-2c(C(=O)N[C@@H]2C(=O)N[C@H](C(C)C)C(=O)N3CCC[C@H]3C(=O)N(C)CC(=O)N(C)[C@@H](C(C)C)C(=O)O[C@@H]2C)c(N)c1=O [Dactinomycin] (I: T[dV]P[Sar][NMeV] / II: T[dV]P[Sar][NMeV]; ester I:1-I:C, II:1-II:C; linker I:N-II:N via Actinocin(9to1)) | – | – | – | Efficacy at low concentrations (TU-BcX-4IC tumoroids [2]; library screen, tumoroid integrity by nuclear count): efficacy at low concentrations; EC50 (TU-BcX-4IC 2D culture [3]): < 10 nM; EC50 (TU-BcX-4IC 3D cultures [4]): 33 nM; EC50 (TU-BcX-4IC 2D culture [5]): < 10 nM; EC50 (TU-BcX-4IC 3D cultures [6]): 5 nM
12 | Cc1nc(Nc2ncc(C(=O)Nc3c(C)cccc3Cl)s2)cc(N2CCN(CCO)CC2)n1 [Dasatinib] | – | – | 0.1 | –
13 | COC(=O)N[C@@H](C)CNc1nccc(-c2cn(C(C)C)nc2-c2cc(Cl)cc(NS(C)(=O)=O)c2F)n1 [Encorafenib] | 5.516 | no | – | –
14 | CN1CCN(c2ccc(C(=O)Nc3n[nH]c4ccc(Cc5cc(F)cc(F)c5)cc34)c(NC3CCOCC3)c2)CC1 [Entrectinib] | 4.843 | yes | – | –
15 | COc1cccc2c1C(=O)c1c(O)c3c(c(O)c1C2=O)C[C@@](O)(C(=O)CO)C[C@@H]3O[C@H]1C[C@H](N)[C@@H](O)[C@H](C)O1 [Epirubicin hydrochloride] | 5.883 | – | 1 | –
16 | Cc1cnc(Nc2ccc(OCCN3CCCC3)cc2)nc1Nc1cccc(S(=O)(=O)NC(C)(C)C)c1 [Fedratinib] | – | – | 1 | –
17 | C[C@]12CC[C@@H]3c4ccc(O)cc4C[C@@H](CCCCCCCCC[S+]([O-])CCCC(F)(F)C(F)(F)F)[C@H]3[C@@H]1CC[C@@H]2O (stereo partly shown) [Fulvestrant] | – | – | 0.01 | –
18 | CCc1nc(C(N)=O)c(Nc2ccc(N3CCC(N4CCN(C)CC4)CC3)c(OC)c2)nc1NC1CCOCC1 [Gilteritinib] | 5.239 | – | 1 | –
19 | C=CC(=O)N1CCC[C@@H](n2nc(-c3ccc(Oc4ccccc4)cc3)c3c(N)ncnc32)C1 [Ibrutinib] | – | – | – | EC50 (TU-BcX-4IC 2D culture [3]): 25000 nM; EC50 (TU-BcX-4IC 3D cultures [4]): ~20000 nM; EC50 (TU-BcX-4IC 2D culture [5]): 20200 nM; EC50 (TU-BcX-4IC 3D cultures [6]): 15800 nM
20 | CC(=O)[C@]1(O)Cc2c(O)c3c(c(O)c2[C@@H](O[C@H]2C[C@H](N)[C@H](O)[C@H](C)O2)C1)C(=O)c1ccccc1C3=O [Idarubicin hydrochloride] | – | – | 1 | EC50 (TU-BcX-4IC 2D culture [3]): 67 nM; EC50 (TU-BcX-4IC 3D cultures [4]): 3930 nM; EC50 (TU-BcX-4IC 2D culture [5]): ~1000 nM; EC50 (TU-BcX-4IC 3D cultures [6]): 145 nM

Row | Molecule | Distance Score (TU-BcX-4IC tumoroids [1]) | Viability HIT? (TU-BcX-4IC tumoroids [2]) | minimal effective concentration (TU-BcX-4IC tumoroids [2]; [8]) [µM] | other results
21 | CC(C)C[C@H](NC(=O)CNC(=O)c1cc(Cl)ccc1Cl)B1OC(=O)C(CC(=O)O)(CC(=O)O)O1 [Ixazomib citrate] | – | – | 0.1 | –
22 | O=C(Nc1cnn2ccc(N3CCC[C@@H]3c3cc(F)ccc3F)nc12)N1CC[C@H](O)C1 [Larotrectinib] | 5.667 | no | – | –
23 | CO[C@@]12[C@H](COC(N)=O)C3=C(C(=O)C(C)=C(N)C3=O)N1C[C@@H]1N[C@@H]12 [Mitomycin] | – | – | 1 | –
24 | Clc1ccc(C(c2ccccc2Cl)C(Cl)Cl)cc1 (stereo not shown) [Mitotane] | – | – | 0.1 | –
25 | COC(=O)C[C@](O)(CCCC(C)(C)O)C(=O)O[C@@H]1C(OC)=C[C@]23CCCN2CCc2cc4c(cc2[C@H]13)OCO4 [Omacetaxine] | – | – | – | Effective concentration (TU-BcX-4IC tumoroids [2]; 3D tumoroids, 5 days treatment, tumoroid integrity by nuclear count, tested at 10 nM to 100 uM): 1 µM; EC50 (TU-BcX-4IC tumoroids [7]; read-out: EC50): < 100 nM
26 | C=CC(=O)Nc1cc(Nc2nccc(-c3cn(C)c4ccccc34)n2)c(OC)cc1N(C)CCN(C)C [Osimertinib] | 5.241 | yes | – | –
27 | CC(=O)O[C@H]1C(=O)[C@@]2(C)[C@H]([C@H](OC(=O)c3ccccc3)[C@]3(O)C[C@H](OC(=O)[C@H](O)[C@@H](NC(=O)c4ccccc4)c4ccccc4)C(C)=C1C3(C)C)[C@]1(OC(C)=O)CO[C@@H]1C[C@@H]2O [Paclitaxel] | – | – | 1 | EC50 (TU-BcX-4IC tumoroids [7]; [9]): 2900 nM
28 | Cc1ccc(C(=O)Nc2ccc(CN3CCN(C)CC3)c(C(F)(F)F)c2)cc1C#Cc1cnc2cccnn12 [Ponatinib] | – | – | – | minimal effective concentration (TU-BcX-4IC tumoroids [2]; [10]): 0.1 µM
29 | CNC(=O)c1cc(Oc2ccc(NC(=O)Nc3ccc(Cl)c(C(F)(F)F)c3)c(F)c2)ccn1 [Regorafenib] | – | – | 0.1 | –
30 | O=C(/C=C\n1cnc(-c2cc(C(F)(F)F)cc(C(F)(F)F)c2)n1)NNc1cnccn1 [Selinexor] | 5.004 | no | – | –
31 | CCN(CC)CCNC(=O)c1c(C)[nH]c(/C=C2\C(=O)Nc3ccc(F)cc32)c1C [Sunitinib] | – | – | – | EC50 (TU-BcX-4IC tumoroids [7]; [9]): 1700 nM
32 | CO[C@H]1C[C@@H]2CC[C@@H](C)[C@@](O)(O2)C(=O)C(=O)N2CCCC[C@H]2C(=O)O[C@H]([C@H](C)C[C@@H]2CC[C@@H](OC(=O)C(C)(CO)CO)[C@H](OC)C2)CC(=O)[C@H](C)/C=C(\C)[C@@H](O)[C@@H](OC)C(=O)[C@H](C)C[C@H](C)/C=C/C=C/C=C/1C [Temsirolimus] | 5.699 | no | 1 | EC50, ATP 2D (TU-BcX-4IC 2D culture [3]; 2D culture, 2000 cells, 5 days treatment, CellTiter-Glo 3D): no fit; EC50 (TU-BcX-4IC 3D cultures [4]): 8520 nM; EC50 (TU-BcX-4IC 2D culture [5]): 10000 nM; EC50, ATP 3D (TU-BcX-4IC 3D cultures [6]; 3D culture, 2000 cells, 5 days treatment, CellTiter-Glo 3D): no fit
33 | Oc1ncc(N(CCCl)CCCl)c(O)n1 [Uracil mustard] | – | – | – | minimal effective concentration (TU-BcX-4IC tumoroids [2]; [10]): 1 µM
34 | CCCCC(=O)OCC(=O)[C@]1(O)Cc2c(O)c3c(c(O)c2[C@@H](O[C@H]2C[C@H](NC(=O)C(F)(F)F)[C@H](O)[C@H](C)O2)C1)C(=O)c1c(OC)cccc1C3=O [Valrubicin] | 8.136 | yes | – | –
35 | COc1cc2c(Nc3ccc(Br)cc3F)ncnc2cc1OCC1CCN(C)CC1 [Vandetanib] | 5.185 | – | 1 | –
36 | CC1(C)CCC(CN2CCN(c3ccc(C(=O)NS(=O)(=O)c4ccc(NCC5CCOCC5)c([N+](=O)[O-])c4)c(Oc4cnc5[nH]ccc5c4)c3)CC2)=C(c2ccc(Cl)cc2)C1 [Venetoclax] | 4.922 | – | 1 | –
37 | CC[C@]1(O)C[C@@H]2CN(CCc3c([nH]c4ccccc34)[C@@](C(=O)OC)(c3cc4c(cc3OC)N(C)[C@H]3[C@@](O)(C(=O)OC)[C@H](OC(C)=O)[C@]5(CC)C=CCN6CC[C@]43[C@@H]65)C2)C1 [Vinblastine sulfate] | – | – | 0.1 | –
38 | CC[C@]1(O)C[C@H]2CN(CCc3c([nH]c4ccccc34)[C@@](C(=O)OC)(c3cc4c(cc3OC)N(C=O)[C@H]3[C@@](O)(C(=O)OC)[C@H](OC(C)=O)[C@]5(CC)C=CCN6CC[C@]43[C@@H]65)C2)C1 [Vincristine sulfate] | – | – | 0.1 | –
39 | O=C(CCCCCCC(=O)Nc1ccccc1)NO [Vorinostat] | 5.079 | no | 1 | –
40 | Dabrafenib mesylate | 6.249 | yes | – | –
